Experimental data from patent publication EP4545091A1 (priority 2023, dated 2025).
Counter-ions that a name gives are not always drawn. Bridges are numbered along the chain shown (N, C = ends).

Experiments:
[1] = system: SARS-CoV-2 Wuhan Hu-1 spike; assay: microbe, parasite or virus in culture; assay type: cell-based; settings: Severe acute respiratory syndrome coronavirus 2, Caco-2, 48 h, read-out: IC50, SARS-CoV-2 spike-driven entry
MERS-CoV spike = settings: 48 h
SARS-CoV-2 Omicron BA.5 = assay type: cell-based
SARS-CoV-2 BA.5 = assay type: cell-based
[2] = system: SARS-CoV-2 Wuhan Hu-1 strain; settings: 48 h
SARS-CoV spike = settings: 48 h
[3] = system: Influenza A virus (IAV) H1N1; settings: virus (IAV, 48 h)
hCoV-NL63 = settings: 48 h
VSV-G glycoprotein = assay type: cell-based

| Compound | IC50 [1] [nM] | IC50 (MERS-CoV spike) [nM] | viral titers two days post infection (SARS-CoV-2 Omicron BA.5) | reduction of cumulative RNA copy production (SARS-CoV-2 BA.5) [%] | replication (RNA copies/ml in supernatants) (SARS-CoV-2 BA.5) | IC50 [2] [nM] | IC50 (SARS-CoV spike) [nM] | IC50 [3] [nM] | IC50 (hCoV-NL63) [nM] | entry of VSV-G bearing control pseudoparticles (VSV-G glycoprotein) |
| --- | --- | --- | --- | --- | --- | --- | --- | --- | --- | --- |
| CN(C)C(=O)COC(=O)Cc1ccc(OC(=O)c2ccc(NC(=N)N)cc2)cc1 [Camostat mesylate] | 70 | – | – | – | – | – | – | – | – | – |
| VAACNLPIVRGPCRAFIQLWAFDAVKGKCVLFPYGGCQGNGNKFYSEKECREYCGVPGDGD (disulfide 4-54, 13-37, 29-50) [Trypstatin] | – | 78 | strongly reduced viral titers | > 99.9 | almost entirely prevented replication | 26 | 31 | 222 | 190 | did not affect entry |
